According to patent publication EP1551873B1, “AGONISTS AND ANTAGONISTS OF THE HUMAN ODORANT RECEPTOR OR17-4 AND USES THEREOF” (Symrise AG, priority 2002, dated 2004):

Key:
hOR17-4 = experiment: Ca2+ imaging (Fura-2) of HEK293 cells transiently transfected with pOR17-4 (chimeric receptor); assay type: cell-based, human; details: for Rezeptoraktivierung (Ca^2+-Antwort): single odorant about 500 µM, pOR17-4-transfected HEK293 cells; for Wirksamkeit (Rangordnung der Agonisten): ranking by amplitude normalised to ATP and by responding cells relative to Cyclamal ca. 5 mM
Text: Es wird vermutet, dass die Transmembrandomänen III-VI eine Bindungstasche zum Binden von Agonisten bilden (s. S. Firestein, Nature 413, 211-218 (2001)). Um diese Vermutung für den Rezeptor hOR17-4 zu überprüfen wurde ein für die vermuteten Transmembrandomänen III bis VI codierender Abschnitt der für hOR17-4 codierenden cDNA in einem Shuttle-Expressions-Vektor (pOLF-Express) kloniert. Der Expressionsvektor pOLF-Express umfasst die für die N- und C-terminalen Regionen von hOR17-40 codierenden DNA-Abschnitte (C. H. Wetzel et al., Journal of Neuroscience 19, 7426-7433 (1999)). Das resultierende chimäre Rezeptorprotein sollte die Agonistenspezifität des vollständigen Rezeptors hOR17-4 besitzen.
HEK293-Zellen wurden in MEM (Life Technologies, Gaithersburg, MD), das mit 10 % hitze-inaktiviertem fetalem Kälber-Serum angereichert war, in einem Inkubator bei 37 °C in einer Atmosphäre aus 95 % befeuchteter Luft und 5 % CO2 kultiviert. Semikonfluente Zellen wurden in 35 mm Gefäßen (Falcon) mittels Calciumphosphat-Präzipitation (Zufall et al., PNAS 90 (1993), 9335-9339) unter Verwendung jeweils des Plasmids pOR17-4 bzw. pOR17-4v transfiziert. Die Transfektionseffizienz - typischerweise 10 % - wurde histochemisch mit dem Reporterplasmid pCH110 (Pharmacia, Uppsala, Schweden) überprüft, das für β-Galactosidase codiert. Messungen wurden 48 bis 72 Stunden nach der Transfektion durchgeführt. Die Transfektionseffizienz kann mit einem für GFP, einem grün fluoreszierenden Protein, codierenden Reporterplasmid ebenfalls überprüft werden.
Die Rezeptor-Aktivierung in HEK293-Zellen führt zu einem vorübergehenden Anstieg der cytosolischen Ca^2+-Konzentration, die auf der Einzelzell-Ebene unter Verwendung des Ca^2+-sensitiven Farbstoffes Fura-2 (Fura-2 AM, Molecular Probes Europe BV, Leiden, Niederlande; Ladekonzentration 3-4 µg/ml; Ladezeit ca. 30 min) und ratiofluorometrischen Bildgebungstechniken (Imaging-Experimente) detektiert wurden.
Die Ca^2+-imaging-Experimente wurden auf dem Träger eines invertierten Zeiss-Mikroskopes durchgeführt, das für die ratiofluorometrische Bildgebung mit einer Xenon-Bogenlampe, einem Vielfach-Wellenlängen-Illuminations-System POLYCH-ROM II zur Anregung, einer gekühlten charge-coupled device (CCD)-Kamera und einer WinNT-basierten T.I.L.L.-Vision-Software zum Sammeln und raum- und zeitabhängigen Quantifizieren Ca^2+-abhängiger Fluoreszenz-Signale (F340/F380-Verhältnis) ausgestattet war. HEK293-Zellen wurden mit 32-facher, Spermazellen mit 63-facher Vergrößerung beobachtet.
HEK293- und Spermazellen wurden unter Verwendung eines speziellen Applikations-Systems, das es gestattete, vorübergehend alle Zellen im Blickfeld aus einem von sechs benutzergewählten Kapillarröhrchen zu überspülen, Geruchs- und/oder Wirkstoffen (Testlösungen) ausgesetzt. Der Wechsel zwischen den Testlösungen erfolgte nahezu sofort; auch trat im Wesentlichen keine Wirkungsverzögerung nach dem Wechsel auf, weil die Röhrchenspitzen zum optischen Feld eng benachbart waren. Zwischen den Applikationen von Testlösungen überspülte ein Pufferlösungsstrom kontinuierlich alle Zellen im Gefäß, um jedwede potentielle Hintergrund-Anreicherung von Testlösungen (Geruchs- bzw. Wirkstoffen) zu minimieren. Alle Lösungen wurden bei Raumtemperatur appliziert. Alle verwendeten Geruchsstoffe stammten von Dr. T. Gerke, Henkel KGaA, Düsseldorf, FRG, andere Wirkstoffe wurden von Sigma gekauft. Zur Zusammensetzung der Henkel 100-Mischung vergleiche C. H. Wetzel et al., Journal of Neuroscience 19, 7426-7433 (1999).
Alle auf die potentielle Aktivierung von hOR17-4 untersuchten Geruchsstoffe wurden wenigstens in drei verschiedenen Reihen von Transfektionsexperimenten getestet. […] Geruchsstoffe, die nicht in wenigstens 2 % aller HEK293-Zellen messbare Ca^2+-Konzentrationssteigerung auslösten, wurden nicht zu den hOR17-4-spezifischen Agonisten gezählt, ebenso diejenigen wenigen der untersuchten Komponenten, die ein unspezifisches Ca^2+-Signal in fast jeder Zelle hervorriefen. […]

hOR17-40 [1] = target: T1, hOR17-40 (Homo sapiens, UniProt P47881); details: literature (Wetzel et al. 1999), HEK293; cited from earlier work
T1 construct: pOR17-40 (Ausschnitt) mit der vollständigen cDNA von hOR17-40; expressed in transfected cells; host or cells: HEK293, plasmid pOR17-40
T1 sequence (P47881 1-315): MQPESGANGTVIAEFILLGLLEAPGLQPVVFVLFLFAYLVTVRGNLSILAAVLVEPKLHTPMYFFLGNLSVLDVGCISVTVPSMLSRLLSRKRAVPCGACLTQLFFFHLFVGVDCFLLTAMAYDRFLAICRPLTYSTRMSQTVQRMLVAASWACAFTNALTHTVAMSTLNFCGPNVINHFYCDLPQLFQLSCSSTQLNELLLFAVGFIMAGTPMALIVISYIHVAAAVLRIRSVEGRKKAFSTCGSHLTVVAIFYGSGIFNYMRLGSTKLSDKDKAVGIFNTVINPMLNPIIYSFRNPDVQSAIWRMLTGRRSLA

hOR17-40 [2] = target: T1, hOR17-40; experiment: Ca2+ imaging of HEK293 cells transfected with pOR17-40; assay type: cell-based; details: n=168
Spermien = experiment: Signal transduction inhibitors on bourgeonal response of sperm (chemotaxis and swimming speed); assay type: cell-based, human; details: inhibitor 50 µM, Bourgeonal 100 nM
Experimental: Gefrorene Samenproben von fünf gesunden Spendern wurden aus der California Cryobank (Los Angeles, CA, USA) erhalten und für Bioassays gemäß den World Health Organization-Richtlinien (World Health Organization: Laboratory for the examination of human serum and semen-cervical mucus interaction, Cambridge University Press (1993)) vorbereitet (vgl. vorheriges Beispiel und Beispiel 7). Bevor oder während die Spermien mit Bourgeonal (100 nM) behandelt wurden, wurden sie jeweils (a) mit Adenylatcyclase-Inhibitor (MDL-12,330A, 50 µM) und (b) mit einem Phospholipase C-Inhibitor (U73122, 50 µM) behandelt.

[3] = system: olfaktorische Rezeptor OR5; details: receptor expressed in E. coli; cited from earlier work
Ratten-I7-Rezeptor = target: T2, Ratten-I7-Rezeptor (Rattus norvegicus, UniProt P23270); details: cited from earlier work
T2 sequence (P23270 1-327): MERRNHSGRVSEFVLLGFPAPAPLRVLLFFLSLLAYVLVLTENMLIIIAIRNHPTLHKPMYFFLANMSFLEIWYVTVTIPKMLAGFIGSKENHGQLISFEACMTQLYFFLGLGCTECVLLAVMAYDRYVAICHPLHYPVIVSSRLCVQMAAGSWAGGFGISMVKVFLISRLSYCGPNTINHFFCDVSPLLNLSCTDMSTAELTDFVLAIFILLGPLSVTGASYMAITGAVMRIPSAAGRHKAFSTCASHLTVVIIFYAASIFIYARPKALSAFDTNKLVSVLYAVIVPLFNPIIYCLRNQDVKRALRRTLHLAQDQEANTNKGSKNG

Compound | Rezeptoraktivierung (Ca^2+-Antwort) (hOR17-4) | also measured
O=Cc1ccccc1 [Benzaldehyd, reference compound] | keine messbare Antwort | –
Citrusal [reference compound] | nicht aktivierenden | –
CC(C=O)Cc1ccc2c(c1)OCO2 (centres unmarked) [Helional, reference compound] | keiner Rezeptoraktivierung | Agonist (Aktivierung des Rezeptors, Erhöhung des cytosolischen Ca^2+-Spiegels) (hOR17-40 [1]): als Agonisten wirkende Substanzen; vorübergehende Erhöhung des cytosolischen Ca^2+-Spiegels, Anteil aller getesteten Zellen (hOR17-40 [2]): 2 - 5%
Cl.c1ccc(C2CCCC2NC2=NCCCCCCCCCCC2)cc1 (centres unmarked) [MDL-12,330A] | – | Anteil der bourgeonal-responsiven Spermien, die nicht mehr auf Bourgeonal reagierten (Spermien; missing chemotaxis and missing change of swimming speed): 72%
O=CCCCCc1ccccc1 [5-Phenylvaleraldehyd, reference compound] | keine messbare Antwort | –
O=CCCc1ccccc1 [3-Phenylpropanal] | klaren Ca^2+-Antworten | –
CC(C)c1ccccc1 [Isopropylbenzol, reference compound] | induzierte keine Rezeptoraktivität | –
CC(CC=O)c1ccccc1 (centres unmarked) [3-PBA, 3-Phenylbutyraldehyd] | klaren Ca^2+-Antworten | eine Ca^2+-Reaktion nicht mehr auslösender Schwellenwert (hOR17-4): ~50 µM
O=C(O)CCc1ccccc1 [3-Phenylpropionsäure, reference compound] | aktivierten den Rezeptor nicht | –
CC(CCO)c1ccccc1 (centres unmarked) [3-Phenylbutylalkohol, reference compound] | aktivierten den Rezeptor nicht | –
COc1ccc(CC(C)C=O)cc1 (centres unmarked) [Canthoxal] | klare Ca^2+-Antworten | Induktion einer Ca^2+-Konzentrationssteigerung (hOR17-4; agonist concentration reduced to 10^-6 M): zu einem gewissen Ausmaß; Wirksamkeit (Rangordnung der Agonisten) (hOR17-4): wirksamere Agonisten
O=CCc1ccccc1 [Phenylacetaldehyd] | deutliche Ca^2+-Signale | –
CCc1ccc(CC(C)(C)C=O)cc1 [Floralazon] | Fähigkeit der Substanzen, den Rezeptor zu aktivieren | –
CC(C)(C)c1ccc(OCC=O)cc1 [(4-tert-Butylphenoxy)acetaldehyd, (4-tert-butylphenoxy)acetaldehyd] | erzeugte ein Ca^2+-Signal | –
CC(C=O)Cc1ccc(C(C)(C)C)cc1 (centres unmarked) [Lilial, reference compound] | Fähigkeit der Substanzen, den Rezeptor zu aktivieren | spezifische Bindung [3]: spezifische Bindung; Wirksamkeit (Rangordnung der Agonisten) (hOR17-4): wirksamere Agonisten
CC(C=O)Cc1ccc(C(C)C)cc1 (centres unmarked) [Cyclamal] | Agonist identifiziert | Wirksamkeit (Rangordnung der Agonisten) (hOR17-4): nicht der wirksamste Agonist; Desensitisierung der Geruchsstoff-Antwort (hOR17-4; single application, most responsive cells, ATP response unchanged): vollständigen und langanhaltenden Desensitisierung
O=CC=Cc1ccccc1 [Cinnamaldehyd, reference compound] | vollständig inaktiv | –
COc1ccc2c(c1)CC[C@@H]1[C@@H]2CC[C@]2(C)[C@@H](NCCCCCCN3C(=O)C=CC3=O)CC[C@@H]12 [U73122] | – | Änderung des Spermienverhaltens (Spermien): keine Änderung des Spermienverhaltens
CC=Cc1ccc(OC)cc1 [Anethol, reference compound] | aktivierten den Rezeptor nicht | –
O=CCCCc1ccccc1 [4-Phenylbutylaldehyd, 4-Phenylbutyraldehyd] | deutliche Ca^2+-Signale | –
CC(=O)CCc1ccc2c(c1)OCO2 [Heliotropylaceton] | – | Agonist (Aktivierung des Rezeptors, Erhöhung des cytosolischen Ca^2+-Spiegels) (hOR17-40 [1]): als Agonisten wirkende Substanzen
CCCCCCCC=O [Octanal, reference compound] | nicht aktiviert | Stimulation des Rezeptors (Ratten-I7-Rezeptor): stimuliert
